The structures appear in SMILES notation.

The test concerns MCH receptors. Nature of the test: MCH receptor activity class (method not given).
[1] abbreviates: activity class per percent of control at 10^-7 M or IC50.
The mark [2] stands for this setting: class by percent of control at 10^-7 M or IC50.

As to `CN(C)c1cc(N[C@H]2CC[C@@H](NCc3c[nH]nc3-c3ccc(F)cc3)CC2)nc2ccccc12` [compound 1117], the class under setting [1] is recorded as 3 (Class 3 The value of percent of control at 10^−7 M was more than 60% or the value of IC50 was more than 200 nM.). As to `CSc1ccc(CN[C@H]2CC[C@@H](Nc3cc(N(C)C)c4ccccc4n3)CC2)cc1` [compound 1118], the class under setting [1] is 3 (Class 3 The value of percent of control at 10^−7 M was more than 60% or the value of IC50 was more than 200 nM.). As to `CN(C)c1cc(N[C@H]2CC[C@@H](NCc3cccc4ccccc34)CC2)nc2ccccc12` [compound 1119], under setting [1], the class was 3 (Class 3 The value of percent of control at 10^−7 M was more than 60% or the value of IC50 was more than 200 nM.).

As to `COc1cc(CN[C@H]2CC[C@@H](Nc3cc(N(C)C)c4ccccc4n3)CC2)ccc1O` [compound 1120], the class under setting [1] is reported as 3 (Class 3 The value of percent of control at 10^−7 M was more than 60% or the value of IC50 was more than 200 nM.). Still for that read-out and setting: in the case of `CN(C)c1cc(N[C@H]2CC[C@@H](NCc3ccc(F)c(Cl)c3)CC2)nc2ccccc12` [compound 1121] it was 3 (Class 3 The value of percent of control at 10^−7 M was more than 60% or the value of IC50 was more than 200 nM.); in that of `COc1cccc(OC)c1CNC[C@H]1CC[C@@H](Nc2cc(N(C)C)c3ccccc3n2)CC1` [compound 1122], 2 (Class 2: The value of percent of control at 10^−7 M was from 40% to 60% or the value of IC′50 was from 50 nM to 200 nM.); in that of `CCOc1ccccc1CNC[C@H]1CC[C@@H](Nc2cc(N(C)C)c3ccccc3n2)CC1` [compound 1123], 2 (Class 2: The value of percent of control at 10^−7 M was from 40% to 60% or the value of IC′50 was from 50 nM to 200 nM.). Consider `CN(C)c1cc(N[C@H]2CC[C@@H](CNCc3c[nH]c4ccccc34)CC2)nc2ccccc12` [compound 1124], for which the class under setting [1] was 3 (Class 3 The value of percent of control at 10^−7 M was more than 60% or the value of IC50 was more than 200 nM.). On the same count and under the same terms, in the case of `COc1ccc(OC)c(CNC[C@H]2CC[C@@H](Nc3cc(N(C)C)c4ccccc4n3)CC2)c1` [compound 1125] it was 3 (Class 3 The value of percent of control at 10^−7 M was more than 60% or the value of IC50 was more than 200 nM.).

For `COc1ccc(CNC[C@H]2CC[C@@H](Nc3cc(N(C)C)c4ccccc4n3)CC2)c2ccccc12` [compound 1126], the class under setting [1] was 2 (Class 2: The value of percent of control at 10^−7 M was from 40% to 60% or the value of IC′50 was from 50 nM to 200 nM.). On the same count and under the same terms, in the case of `COc1ccc2[nH]cc(CNC[C@H]3CC[C@@H](Nc4cc(N(C)C)c5ccccc5n4)CC3)c2c1` [compound 1127] it was 3 (Class 3 The value of percent of control at 10^−7 M was more than 60% or the value of IC50 was more than 200 nM.); in that of `COc1ccc2ccccc2c1CNC[C@H]1CC[C@@H](Nc2cc(N(C)C)c3ccccc3n2)CC1` [compound 1128], 3 (Class 3 The value of percent of control at 10^−7 M was more than 60% or the value of IC50 was more than 200 nM.). Take `COc1cc(Br)cc(CNC[C@H]2CC[C@@H](Nc3cc(N(C)C)c4ccccc4n3)CC2)c1O` [compound 1129]: under setting [1], the class is recorded as 2 (Class 2: The value of percent of control at 10^−7 M was from 40% to 60% or the value of IC′50 was from 50 nM to 200 nM.).

`CN(C)c1cc(N[C@H]2CC[C@@H](CNCc3c[nH]c4ccc(Br)cc34)CC2)nc2ccccc12` [compound 1130]: the class under setting [1] is recorded as 2 (Class 2: The value of percent of control at 10^−7 M was from 40% to 60% or the value of IC′50 was from 50 nM to 200 nM.). As for `COc1ccc(CNC[C@H]2CC[C@@H](Nc3cc(N(C)C)c4ccccc4n3)CC2)c(OC)c1` [compound 1131], the class under setting [1] was 3 (Class 3 The value of percent of control at 10^−7 M was more than 60% or the value of IC50 was more than 200 nM.).

For the molecule `COc1ccc(CNC[C@H]2CC[C@@H](Nc3cc(N(C)C)c4ccccc4n3)CC2)c(OC)c1OC` [compound 1132], the class under setting [1] is 3 (Class 3 The value of percent of control at 10^−7 M was more than 60% or the value of IC50 was more than 200 nM.). For `COc1cc(CNC[C@H]2CC[C@@H](Nc3cc(N(C)C)c4ccccc4n3)CC2)cc(OC)c1O` [compound 1133], the class under setting [1] is listed as 3 (Class 3 The value of percent of control at 10^−7 M was more than 60% or the value of IC50 was more than 200 nM.). As for `CCOc1cc(CNC[C@H]2CC[C@@H](Nc3cc(N(C)C)c4ccccc4n3)CC2)ccc1OC` [compound 1134], under setting [1], the class is 3 (Class 3 The value of percent of control at 10^−7 M was more than 60% or the value of IC50 was more than 200 nM.). Turning to `CN(C)c1cc(N[C@H]2CC[C@@H](CNCc3c[nH]nc3-c3ccc(C(F)(F)F)cc3)CC2)nc2ccccc12` [compound 1135], the class under setting [1] is reported as 3 (Class 3 The value of percent of control at 10^−7 M was more than 60% or the value of IC50 was more than 200 nM.). The same measure, in the same setting: for `COc1cc(CNC[C@H]2CC[C@@H](Nc3cc(N(C)C)c4ccccc4n3)CC2)cc(OC)c1OC` [compound 1136] the value was 3 (Class 3 The value of percent of control at 10^−7 M was more than 60% or the value of IC50 was more than 200 nM.); for `COc1cc(CNC[C@H]2CC[C@@H](Nc3cc(N(C)C)c4ccccc4n3)CC2)cc(OC)c1` [compound 1138], 3 (Class 3 The value of percent of control at 10^−7 M was more than 60% or the value of IC50 was more than 200 nM.). Regarding `COc1cc(CNC[C@H]2CC[C@@H](Nc3cc(N(C)C)c4ccccc4n3)CC2)cc(I)c1O` [compound 1139], under setting [1], the class is on record as 3 (Class 3 The value of percent of control at 10^−7 M was more than 60% or the value of IC50 was more than 200 nM.). Turning to `Cc1cc(CNC[C@H]2CC[C@@H](Nc3cc(N(C)C)c4ccccc4n3)CC2)cc(C)c1O` [compound 1140], the class under setting [1] was 3 (Class 3 The value of percent of control at 10^−7 M was more than 60% or the value of IC50 was more than 200 nM.). On to `COc1ccc(CNC[C@H]2CC[C@@H](Nc3cc(N(C)C)c4ccccc4n3)CC2)cc1` [compound 1141], for which the class under setting [1] is given as 3 (Class 3 The value of percent of control at 10^−7 M was more than 60% or the value of IC50 was more than 200 nM.).

On to `CN(C)c1cc(N[C@H]2CC[C@@H](CNCc3ccc4c(c3)OCCO4)CC2)nc2ccccc12` [compound 1142], for which, under setting [1], the class was 3 (Class 3 The value of percent of control at 10^−7 M was more than 60% or the value of IC50 was more than 200 nM.). The same measure, in the same setting: for `CN(C)c1cc(N[C@H]2CC[C@@H](CNCc3cccc(Br)c3)CC2)nc2ccccc12` [compound 1143] the value was 3 (Class 3 The value of percent of control at 10^−7 M was more than 60% or the value of IC50 was more than 200 nM.); for `COc1cc(OC)c(CNC[C@H]2CC[C@@H](Nc3cc(N(C)C)c4ccccc4n3)CC2)cc1Br` [compound 1144], 2 (Class 2: The value of percent of control at 10^−7 M was from 40% to 60% or the value of IC′50 was from 50 nM to 200 nM.); for `COc1ccc(Br)cc1CNC[C@H]1CC[C@@H](Nc2cc(N(C)C)c3ccccc3n2)CC1` [compound 1145], 3 (Class 3 The value of percent of control at 10^−7 M was more than 60% or the value of IC50 was more than 200 nM.).

`CN(C)c1cc(N[C@H]2CC[C@@H](CNCc3ccc(O)cc3Cl)CC2)nc2ccccc12` [compound 1146]: under setting [1], the class is given as 3 (Class 3 The value of percent of control at 10^−7 M was more than 60% or the value of IC50 was more than 200 nM.). Same read-out and setting: in the case of `CN(C)c1cc(N[C@H]2CC[C@@H](CNCc3ccccc3C#N)CC2)nc2ccccc12` [compound 1147] it was 3 (Class 3 The value of percent of control at 10^−7 M was more than 60% or the value of IC50 was more than 200 nM.); in that of `CN(C)c1cc(N[C@H]2CC[C@@H](CNCc3ccc(Cl)cc3)CC2)nc2ccccc12` [compound 1149], 3 (Class 3 The value of percent of control at 10^−7 M was more than 60% or the value of IC50 was more than 200 nM.).

With `CCN(CC)c1ccc(CNC[C@H]2CC[C@@H](Nc3cc(N(C)C)c4ccccc4n3)CC2)cc1` [compound 1150], the class under setting [1] is 3 (Class 3 The value of percent of control at 10^−7 M was more than 60% or the value of IC50 was more than 200 nM.). In the case of `CN(C)c1ccc(CNC[C@H]2CC[C@@H](Nc3cc(N(C)C)c4ccccc4n3)CC2)cc1` [compound 1151], under setting [1], the class is reported as 3 (Class 3 The value of percent of control at 10^−7 M was more than 60% or the value of IC50 was more than 200 nM.). As to `CCn1c2ccccc2c2cc(CNC[C@H]3CC[C@@H](Nc4cc(N(C)C)c5ccccc5n4)CC3)ccc21` [compound 1152], the class under setting [1] is listed as 3 (Class 3 The value of percent of control at 10^−7 M was more than 60% or the value of IC50 was more than 200 nM.). For `CN(C)c1cc(N[C@H]2CC[C@@H](CNCc3cc(C(F)(F)F)ccc3F)CC2)nc2ccccc12` [compound 1153], the class under setting [1] was 3 (Class 3 The value of percent of control at 10^−7 M was more than 60% or the value of IC50 was more than 200 nM.).

On to `CN(C)c1cc(N[C@H]2CC[C@@H](CNCc3ccc(O)cc3)CC2)nc2ccccc12` [compound 1154], for which, under setting [1], the class was 3 (Class 3 The value of percent of control at 10^−7 M was more than 60% or the value of IC50 was more than 200 nM.). Consider `CN(C)c1cc(N[C@H]2CC[C@@H](CNCc3ccc(CO)o3)CC2)nc2ccccc12` [compound 1155], for which the class under setting [2] was 3 (Class 3 The value of percent of control at 10^−7 M was more than 60% or the value of IC50 was more than 200 nM.). Take `CC(C)Oc1ccc(CNC[C@H]2CC[C@@H](Nc3cc(N(C)C)c4ccccc4n3)CC2)cc1` [compound 1156]: the class under setting [2] was 3 (Class 3 The value of percent of control at 10^−7 M was more than 60% or the value of IC50 was more than 200 nM.). Consider `CCc1ccc(CNC[C@H]2CC[C@@H](Nc3cc(N(C)C)c4ccccc4n3)CC2)s1` [compound 1157], for which, under setting [2], the class is listed as 3 (Class 3 The value of percent of control at 10^−7 M was more than 60% or the value of IC50 was more than 200 nM.).

Take `CN(C)c1cc(N[C@H]2CC[C@@H](CNCC=C(c3ccccc3)c3ccccc3)CC2)nc2ccccc12` [compound 1158]: the class under setting [2] is listed as 1 (Class 1: The value of percent of control at 10^−7 M was less than 40% or the value of IC50 was less than 50 nM.). For `CCOc1cc(CNC[C@H]2CC[C@@H](Nc3cc(N(C)C)c4ccccc4n3)CC2)ccc1O` [compound 1159], under setting [2], the class is recorded as 3 (Class 3 The value of percent of control at 10^−7 M was more than 60% or the value of IC50 was more than 200 nM.).

Values taken from patent publication US20050197350A1, “Novel quinoline, tetrahydroquinazoline, and pyrimidine derivatives and methods of treatment related to the use thereof” (TAISHO PHARMACEUTICAL CO., LTD., priority 2003, published 2005).
